One block for each compound: values may come before it.
What was measured:
[1] = biological target: Protein kinase C theta type (Homo sapiens, UniProt Q04759); settings: at 10 µM
[2] = test system: Mast/stem cell growth factor receptor Kit (Homo sapiens), P10721 [L576P]; settings: at 10 µM
[3] = biological target: T1, Aurora kinase A (Homo sapiens) (UniProt O14965); settings: at 10 µM
T1 sequence (whole entry): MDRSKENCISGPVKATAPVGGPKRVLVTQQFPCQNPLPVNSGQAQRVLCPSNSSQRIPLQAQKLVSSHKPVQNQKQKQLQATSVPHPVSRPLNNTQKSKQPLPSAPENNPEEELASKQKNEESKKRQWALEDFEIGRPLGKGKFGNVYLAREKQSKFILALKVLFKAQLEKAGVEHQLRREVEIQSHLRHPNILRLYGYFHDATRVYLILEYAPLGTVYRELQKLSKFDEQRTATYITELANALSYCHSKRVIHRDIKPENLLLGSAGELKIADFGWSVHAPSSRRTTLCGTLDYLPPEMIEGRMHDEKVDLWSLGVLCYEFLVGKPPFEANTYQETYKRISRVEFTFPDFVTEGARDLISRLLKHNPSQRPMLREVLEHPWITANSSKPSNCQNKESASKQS

[4] = biological target: Bone morphogenetic protein receptor type-1B (Homo sapiens, UniProt O00238); assay: Selectivity interaction (KinomeScan (DiscoverX)) EUB0001049a BMPR1B; settings: at 1 µM
[5] = biological target: T2, Serine/threonine-protein kinase 3 (Homo sapiens) (UniProt Q13188); assay: Selectivity interaction (ActivX KiNativ screen (kinase selectivity in THP-1 cell lysates)) EUB0000639a STK3; assay type: subcellular; settings: lysate, at 0.01 µM
T2 sequence (whole entry): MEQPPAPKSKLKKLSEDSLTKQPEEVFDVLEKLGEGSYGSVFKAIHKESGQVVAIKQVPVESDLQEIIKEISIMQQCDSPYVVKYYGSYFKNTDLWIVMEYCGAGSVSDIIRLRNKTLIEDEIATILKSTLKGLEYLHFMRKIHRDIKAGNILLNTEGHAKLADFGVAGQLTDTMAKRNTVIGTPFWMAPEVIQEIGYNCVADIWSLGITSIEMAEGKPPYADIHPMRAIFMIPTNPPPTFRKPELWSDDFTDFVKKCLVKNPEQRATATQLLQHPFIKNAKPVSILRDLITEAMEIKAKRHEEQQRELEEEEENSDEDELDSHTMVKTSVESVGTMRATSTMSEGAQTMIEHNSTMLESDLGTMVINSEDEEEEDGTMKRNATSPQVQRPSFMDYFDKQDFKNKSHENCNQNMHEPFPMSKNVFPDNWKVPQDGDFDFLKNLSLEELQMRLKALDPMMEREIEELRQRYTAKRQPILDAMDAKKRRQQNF

[6] = biological target: Serine/threonine-protein kinase WNK2 (Homo sapiens) (UniProt Q9Y3S1); assay: Selectivity interaction (KinomeScan (DiscoverX)) EUB0000695a WNK2; settings: at 100 nM
[7] = biological target: T3, Histone-arginine methyltransferase CARM1 (Homo sapiens) (UniProt Q86X55); assay: Selectivity interaction (Methyltransferase screen (radiometric assays, panel of 8 PRMTs, 21 protein lysine methyltransferases, 3 DNA methyltransferases, and one RNA methyltransferase)) EUB0000272b CARM1
T3 sequence (whole entry): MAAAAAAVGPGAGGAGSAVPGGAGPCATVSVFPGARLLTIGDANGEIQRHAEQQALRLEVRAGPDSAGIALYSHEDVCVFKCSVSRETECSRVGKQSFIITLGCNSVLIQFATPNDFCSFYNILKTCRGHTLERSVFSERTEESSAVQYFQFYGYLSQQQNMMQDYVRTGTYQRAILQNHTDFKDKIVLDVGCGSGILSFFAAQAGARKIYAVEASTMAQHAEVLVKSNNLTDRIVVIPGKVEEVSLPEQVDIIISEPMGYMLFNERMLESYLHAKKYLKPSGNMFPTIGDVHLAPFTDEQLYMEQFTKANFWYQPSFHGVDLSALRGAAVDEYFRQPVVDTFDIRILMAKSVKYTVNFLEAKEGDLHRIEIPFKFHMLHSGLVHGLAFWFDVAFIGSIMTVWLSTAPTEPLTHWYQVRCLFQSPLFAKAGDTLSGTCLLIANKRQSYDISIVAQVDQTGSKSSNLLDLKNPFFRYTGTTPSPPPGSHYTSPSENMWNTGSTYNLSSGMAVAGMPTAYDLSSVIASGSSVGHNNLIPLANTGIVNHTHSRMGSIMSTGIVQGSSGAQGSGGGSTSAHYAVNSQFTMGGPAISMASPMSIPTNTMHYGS

[8] = biological target: L-type calcium channel Cav1.2 (CACNA1C) (Homo sapiens, UniProt Q13936); assay: Selectivity interaction (Eurofins CEREP Diversity Profile (receptors and ion channels)) EUB0000279b CACNA1C; settings: at 10 µM, read-out: % of control
[9] = biological target: BDNF/NT-3 growth factors receptor (Homo sapiens) (UniProt Q16620); settings: at 10 µM
[10] = biological target: Cyclin-dependent kinase 4 (Homo sapiens, UniProt P11802); assay: Selectivity interaction (KinomeScan (DiscoverX)) EUB0001079a CDK4; settings: at 1 µM
[11] = biological target: Non-receptor tyrosine-protein kinase TYK2 (Homo sapiens, UniProt P29597); assay: Selectivity interaction (ProQinase) EUB0000171b TYK2
[12] = biological target: Serine/threonine-protein kinase MARK1 (Homo sapiens) (UniProt Q9P0L2); assay: Selectivity interaction (KinomeScan (DiscoverX)) EUB0000092b MARK1; settings: at 10 µM
[13] = biological target: Tyrosine-protein kinase Fer (Homo sapiens) (UniProt P16591); assay: Selectivity interaction (Kinase panel (KiNativ target engagement assay in Jurkat cells)) EUB0001635a FER; assay type: cell-based; settings: Selectivity number of off-targets 0.0, Selectivity number of targets 233.0, Source Knowledge https://www.sciencedirect.com/science/article/pii/S2451945619300674?via%3Dihub, at 1 µM
[14] = biological target: T4, Serine/threonine-protein kinase Sgk1 (Homo sapiens) (UniProt O00141); assay: Selectivity interaction (KinomeScan (DiscoverX)) EUB0000666a SGK1; settings: at 10 µM
T4 sequence (whole entry): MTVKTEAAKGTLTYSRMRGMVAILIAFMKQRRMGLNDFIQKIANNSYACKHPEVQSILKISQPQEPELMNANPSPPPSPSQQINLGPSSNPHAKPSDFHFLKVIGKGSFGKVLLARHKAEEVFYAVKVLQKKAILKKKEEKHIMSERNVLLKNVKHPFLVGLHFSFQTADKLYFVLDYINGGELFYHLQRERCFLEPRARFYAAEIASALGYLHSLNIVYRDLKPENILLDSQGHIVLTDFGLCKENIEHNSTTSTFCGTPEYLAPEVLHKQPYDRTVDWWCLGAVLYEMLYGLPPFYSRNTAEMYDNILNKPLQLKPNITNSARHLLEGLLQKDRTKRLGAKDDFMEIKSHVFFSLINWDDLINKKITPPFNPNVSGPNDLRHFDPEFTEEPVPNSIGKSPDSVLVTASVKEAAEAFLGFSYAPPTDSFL

Chain of Non-receptor tyrosine-protein kinase TYK2 (P29597 whole entry): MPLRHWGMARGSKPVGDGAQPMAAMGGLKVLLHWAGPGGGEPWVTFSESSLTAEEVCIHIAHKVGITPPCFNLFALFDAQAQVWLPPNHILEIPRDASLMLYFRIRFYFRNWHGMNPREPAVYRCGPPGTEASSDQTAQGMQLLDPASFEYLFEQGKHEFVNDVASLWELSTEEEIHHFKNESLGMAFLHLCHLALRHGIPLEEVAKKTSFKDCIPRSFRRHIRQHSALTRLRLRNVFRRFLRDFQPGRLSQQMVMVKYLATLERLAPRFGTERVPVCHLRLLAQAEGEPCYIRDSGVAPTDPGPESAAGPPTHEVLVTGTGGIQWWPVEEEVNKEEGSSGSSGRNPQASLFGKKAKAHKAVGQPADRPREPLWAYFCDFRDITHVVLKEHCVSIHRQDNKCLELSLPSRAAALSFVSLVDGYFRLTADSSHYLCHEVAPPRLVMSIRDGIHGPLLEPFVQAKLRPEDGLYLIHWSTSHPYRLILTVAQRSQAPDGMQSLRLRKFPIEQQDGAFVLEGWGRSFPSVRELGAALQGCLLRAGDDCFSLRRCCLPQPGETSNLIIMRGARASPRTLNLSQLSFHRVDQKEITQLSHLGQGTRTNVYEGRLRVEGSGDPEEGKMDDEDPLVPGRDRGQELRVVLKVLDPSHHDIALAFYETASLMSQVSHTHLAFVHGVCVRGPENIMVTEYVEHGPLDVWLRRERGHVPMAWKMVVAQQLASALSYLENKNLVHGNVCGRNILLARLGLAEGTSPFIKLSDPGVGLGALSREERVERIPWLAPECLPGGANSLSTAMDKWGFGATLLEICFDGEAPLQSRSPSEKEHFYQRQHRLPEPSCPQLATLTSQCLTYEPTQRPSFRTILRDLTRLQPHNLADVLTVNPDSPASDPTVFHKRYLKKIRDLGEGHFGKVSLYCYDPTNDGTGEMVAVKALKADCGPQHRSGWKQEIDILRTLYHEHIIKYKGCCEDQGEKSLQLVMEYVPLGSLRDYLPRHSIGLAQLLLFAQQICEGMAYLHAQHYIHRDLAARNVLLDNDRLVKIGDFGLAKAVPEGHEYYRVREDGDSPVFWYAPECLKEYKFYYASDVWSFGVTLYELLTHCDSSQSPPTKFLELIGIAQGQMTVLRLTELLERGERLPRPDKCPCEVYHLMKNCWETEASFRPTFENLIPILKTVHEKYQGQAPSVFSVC
Chain of BDNF/NT-3 growth factors receptor (Homo sapiens) (Q16620 32-822 limits assumed): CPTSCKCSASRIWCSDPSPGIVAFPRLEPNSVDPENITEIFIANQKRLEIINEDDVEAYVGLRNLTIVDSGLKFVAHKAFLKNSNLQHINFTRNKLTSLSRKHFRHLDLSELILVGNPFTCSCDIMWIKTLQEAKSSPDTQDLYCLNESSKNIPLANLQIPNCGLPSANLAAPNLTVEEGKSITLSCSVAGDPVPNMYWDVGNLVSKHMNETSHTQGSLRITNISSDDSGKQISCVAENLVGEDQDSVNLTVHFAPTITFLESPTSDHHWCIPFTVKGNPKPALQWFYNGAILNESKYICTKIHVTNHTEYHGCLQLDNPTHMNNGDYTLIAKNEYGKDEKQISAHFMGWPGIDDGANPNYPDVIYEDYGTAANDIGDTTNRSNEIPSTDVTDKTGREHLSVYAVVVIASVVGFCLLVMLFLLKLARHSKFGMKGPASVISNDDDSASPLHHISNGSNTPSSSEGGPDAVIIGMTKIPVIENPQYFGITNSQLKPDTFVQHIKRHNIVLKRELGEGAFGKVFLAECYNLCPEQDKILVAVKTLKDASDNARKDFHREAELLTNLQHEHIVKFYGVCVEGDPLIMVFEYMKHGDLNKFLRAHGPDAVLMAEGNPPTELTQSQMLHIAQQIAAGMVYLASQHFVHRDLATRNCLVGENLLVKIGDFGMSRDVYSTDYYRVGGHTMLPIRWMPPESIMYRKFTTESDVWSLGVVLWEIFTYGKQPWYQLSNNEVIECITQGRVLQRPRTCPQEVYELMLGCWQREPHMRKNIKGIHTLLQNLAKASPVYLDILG
Chain of Mast/stem cell growth factor receptor Kit (Homo sapiens), P10721 [L576P] (P10721 whole entry L576P): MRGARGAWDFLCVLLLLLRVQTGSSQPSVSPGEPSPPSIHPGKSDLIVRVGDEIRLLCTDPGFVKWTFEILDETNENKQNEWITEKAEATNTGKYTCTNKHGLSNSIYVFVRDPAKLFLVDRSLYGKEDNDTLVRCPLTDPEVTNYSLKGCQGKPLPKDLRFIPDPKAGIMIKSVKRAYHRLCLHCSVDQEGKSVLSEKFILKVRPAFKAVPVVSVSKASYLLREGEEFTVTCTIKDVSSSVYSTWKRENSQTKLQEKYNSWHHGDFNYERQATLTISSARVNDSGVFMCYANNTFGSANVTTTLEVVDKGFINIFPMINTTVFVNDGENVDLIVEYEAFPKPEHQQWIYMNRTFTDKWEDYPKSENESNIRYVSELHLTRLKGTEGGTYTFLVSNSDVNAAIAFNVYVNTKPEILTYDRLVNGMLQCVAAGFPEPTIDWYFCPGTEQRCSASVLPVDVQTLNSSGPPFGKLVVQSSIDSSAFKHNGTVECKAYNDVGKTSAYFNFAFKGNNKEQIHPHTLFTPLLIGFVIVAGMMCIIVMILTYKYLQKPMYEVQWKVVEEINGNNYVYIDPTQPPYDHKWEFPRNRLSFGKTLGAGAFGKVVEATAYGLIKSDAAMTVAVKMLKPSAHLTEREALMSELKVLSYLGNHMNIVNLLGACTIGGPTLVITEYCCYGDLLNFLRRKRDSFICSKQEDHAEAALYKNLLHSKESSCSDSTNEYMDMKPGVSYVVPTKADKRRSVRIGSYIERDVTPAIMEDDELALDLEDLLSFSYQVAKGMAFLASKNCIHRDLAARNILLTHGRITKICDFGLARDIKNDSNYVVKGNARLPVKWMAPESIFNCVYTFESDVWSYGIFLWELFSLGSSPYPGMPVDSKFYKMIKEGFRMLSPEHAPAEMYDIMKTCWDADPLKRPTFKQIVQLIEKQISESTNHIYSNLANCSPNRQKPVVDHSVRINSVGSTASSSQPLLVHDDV
Chain of Tyrosine-protein kinase Fer (Homo sapiens) (P16591 whole entry, looked up): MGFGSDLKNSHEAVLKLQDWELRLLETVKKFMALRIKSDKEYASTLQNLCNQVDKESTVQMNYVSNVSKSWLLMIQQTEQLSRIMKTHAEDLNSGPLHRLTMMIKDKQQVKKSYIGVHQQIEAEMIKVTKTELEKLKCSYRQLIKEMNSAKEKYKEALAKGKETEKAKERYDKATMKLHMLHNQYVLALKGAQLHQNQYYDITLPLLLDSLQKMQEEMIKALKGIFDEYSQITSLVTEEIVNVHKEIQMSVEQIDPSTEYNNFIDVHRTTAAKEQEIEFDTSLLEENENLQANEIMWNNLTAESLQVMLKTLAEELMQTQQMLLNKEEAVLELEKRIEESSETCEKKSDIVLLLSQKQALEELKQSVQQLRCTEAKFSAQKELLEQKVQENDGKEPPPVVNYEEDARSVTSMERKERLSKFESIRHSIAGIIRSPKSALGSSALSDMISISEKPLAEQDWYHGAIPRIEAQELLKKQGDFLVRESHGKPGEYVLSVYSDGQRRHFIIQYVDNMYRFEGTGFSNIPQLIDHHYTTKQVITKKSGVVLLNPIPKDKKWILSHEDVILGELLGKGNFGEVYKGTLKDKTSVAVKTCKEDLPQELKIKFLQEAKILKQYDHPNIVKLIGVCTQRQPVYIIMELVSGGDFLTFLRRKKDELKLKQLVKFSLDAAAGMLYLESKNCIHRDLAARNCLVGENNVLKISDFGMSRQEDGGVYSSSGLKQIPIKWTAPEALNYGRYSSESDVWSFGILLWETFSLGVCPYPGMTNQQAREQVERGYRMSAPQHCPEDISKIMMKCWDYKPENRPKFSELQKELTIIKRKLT
Chain of Bone morphogenetic protein receptor type-1B (O00238 whole entry): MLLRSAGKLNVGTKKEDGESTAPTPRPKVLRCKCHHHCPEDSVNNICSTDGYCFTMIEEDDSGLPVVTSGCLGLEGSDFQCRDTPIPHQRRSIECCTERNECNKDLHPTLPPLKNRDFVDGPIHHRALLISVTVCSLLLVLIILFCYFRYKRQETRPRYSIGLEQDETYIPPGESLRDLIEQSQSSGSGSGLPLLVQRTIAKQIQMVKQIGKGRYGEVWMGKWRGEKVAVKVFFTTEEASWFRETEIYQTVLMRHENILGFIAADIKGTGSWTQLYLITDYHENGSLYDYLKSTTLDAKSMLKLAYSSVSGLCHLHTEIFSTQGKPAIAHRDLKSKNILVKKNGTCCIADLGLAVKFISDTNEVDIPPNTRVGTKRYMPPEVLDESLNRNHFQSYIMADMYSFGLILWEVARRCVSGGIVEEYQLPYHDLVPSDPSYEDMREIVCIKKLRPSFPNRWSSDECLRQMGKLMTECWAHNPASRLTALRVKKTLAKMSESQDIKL
Chain of Cyclin-dependent kinase 4 (P11802 whole entry): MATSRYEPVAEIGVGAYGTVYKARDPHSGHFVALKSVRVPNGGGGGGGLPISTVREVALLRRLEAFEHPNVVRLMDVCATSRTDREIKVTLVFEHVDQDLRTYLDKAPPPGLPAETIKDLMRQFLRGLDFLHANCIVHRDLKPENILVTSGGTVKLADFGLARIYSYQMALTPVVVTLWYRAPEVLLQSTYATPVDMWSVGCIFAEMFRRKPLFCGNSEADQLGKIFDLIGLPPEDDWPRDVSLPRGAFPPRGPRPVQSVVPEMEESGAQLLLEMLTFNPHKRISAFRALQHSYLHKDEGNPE

Compound: Cc1cc([C@@H](C)Nc2ccccc2C(=O)O)c2nc(N3CCOCC3)cc(=O)n2c1 [AZD-6482]
- % of control [1]: 97%
- % of control [2]: 95%
- % of control [3]: 100%

Compound: COc1cc(Nc2nc(C)cc(-c3cnn4nc(OC)ccc34)n2)cc(C(F)(F)F)c1
- % of control [4]: 81%

- % of inhibition [5]: -19.5%
Compound: CC[C@@H]1[C@H](F)C(=O)N[C@@H]1COc1nccc2cc(C(N)=O)c(OC)cc12 [ZIMLOVISERTIB]

Compound: Cc1cc(F)c(C(=O)Nc2cccc(-c3nncn3C(C)C)n2)cc1-n1cnc(C2CC2)c1
- % of control [6]: 78%

- % of activity ([7]; at 1 µM): 102%
- % of activity ([7]; at 10 µM): 96.7%
Compound: Cc1cc(C)cc([C@H]2c3cc(C)ccc3NC(=O)CN2C(=O)c2ccc(Br)s2)c1

Compound: CC(=O)c1cc(-c2ccccc2OCC2CC2)c2ncccn12
- activity [8]: 89%

- % of control [9]: 100%
Compound: CCN(CC)CCCCNc1ncc2cc(-c3cc(OC)cc(OC)c3)c(NC(=O)NC(C)(C)C)nc2n1

Compound: Nc1cnc(N2CCc3cc(S(=O)(=O)Nc4c(F)cc(Cl)cc4F)cc(N4CCCC4=O)c32)nc1 [TP-020n]
- % of control [10]: 97%

- % of control ([11]; at 1 µM): 77%
- % of control ([11]; at 5 µM): 46%
Compound: C=CC(=O)Nc1cccc(C(=O)Nc2ccc(Nc3cc(-c4[nH]c(SC)nc4C)ccn3)cc2)c1

Compound: CCC(=O)N1CCN(c2ccc(-n3c(=O)ccc4cnc5ccc(-c6cnc7ccccc7c6)cc5c43)cc2C(F)(F)F)CC1
- % of control [12]: 100%

Compound: C=CC(=O)Nc1ccc(C(=O)Nc2[nH]nc3c2CN(C(=O)N[C@H](CN(C)C)c2ccccc2)C3(C)C)cc1
- % of engagement [13]: -2.6%

Compound: O=C(NOC[C@H](O)CO)c1ccc(F)c(F)c1Nc1ccc(I)cc1F
- % of control [14]: 100%
